Tests used:
[1] = system: human liver-like three-dimensional construct A′; conditions: 10 μmol/l
Protocol: (§1) A DMSO solution of phenytoin was prepared. The obtained drug-containing DMSO solution was added to the culture medium of the human liver-like three-dimensional construct A′ fabricated in Experimental example 3′ such that the concentration of the drug in the medium was 10 μmol/l. The medium was sampled up to 6 days following the drug addition, and the metabolic products in the medium were subjected to separation and structural analysis by a LC/MS/MS method. The abbreviations of the metabolites stand for the following constructs.
as §1, with “Torcetrapib” for “phenytoin”, “method.” for “method. The abbreviations of the metabolites stand for the following constructs.”

[2] = system: human liver-like three-dimensional construct A; test: miR-122-5p in exosomes released from the construct, digital PCR; format: cell-based; conditions: exosomes from culture medium of Experimental example 5
Protocol: (§2) A DMSO solution of trovafloxacin, a drug that is known to show hepatotoxicity when administered to a human, was prepared. […] Changes in the albumin concentrations in the media up to 24 days following addition of the drug, and the levels of ATP contained in the constructs at the end of the experiment were measured using CellTiter-Glo 3D substrate. Furthermore, tissue sections of the constructs were prepared to obtain images of HE staining and immunostaining for albumin.
(§3) The culture medium of Experimental example 5 was centrifuged at 4° C. and 2,000×g for 20 minutes, followed by centrifugation of the collected supernatant at 15,000×g for 30 minutes. To 2.2 mL of each collected sample solution, 1.1 mL of ExoCap Ultracentrifugation/Storage Booster (registered trademark) and 7.7 mL of ultrapure water were added. […]
(§4) The number and the particle-size distribution of the exosome particles were measured using qNano (nanoparticle multi-analyzer). In addition, expression of CD9 in the collected exosomes was confirmed by Western blotting. miRNAs contained in a sample extracted from the exosomes using a RNA extraction kit were measured by digital PCR. Furthermore, microRNAs contained in the exosomes were taken out and the amounts of miR-122, miR-192 and miR-1 were quantified by a quantitative PCR method. […]

[3] = system: human liver-like three-dimensional construct A; test: Assessment of hepatotoxicity: albumin concentration in the medium of the construct; format: cell-based; conditions: drug 5-1000 μmol/l in medium, up to 24 days
Protocol: as §2
DMSO solutions of 20 kinds of drugs that were known to show hepatotoxicity upon administration to a human were prepared. […] Changes in the albumin concentrations in the media 7 and 14 days following addition of the drug are shown in FIG. 8, in which data were normalized to the albumin concentration in the medium added with DMSO only (taken as 100%).

monolayer culture system = test: Albumin concentration in monolayer culture system (standard of comparison); format: cell-based; conditions: monolayer culture as standard of comparison (details omitted)
[4] = system: human liver-like three-dimensional construct A; test: Number and particle-size distribution of exosome particles (qNano); format: cell-based; conditions: three days after drug addition
Protocol: as §3, with “added. The resultant was homogeneously stirred and subjected to ultracentrifugation protocol (35,000 rpm, 70 minutes,4° C.).” for “added.”
as §4
An increase in the particle number concentration of the exosomes contained in the media was observed only three days after the drug addition. Furthermore, miR-122 was detected in the collected exosomes.

Row | miR-122 in the collected exosomes [2] | albumin concentration, monolayer culture system (monolayer culture system) | particle number concentration of the exosomes in the media [4] | Compound | metabolic products separated and detected by LC [1] | albumin concentration in the medium [3]
1 | – | – | – | CCOC(=O)N1c2ccc(C(F)(F)F)cc2[C@@H](N(Cc2cc(C(F)(F)F)cc(C(F)(F)F)c2)C(=O)OC)C[C@H]1CC [Torcetrapib] | Two kinds of metabolic products M2 and M5 | –
2 | detected | no decrease | increase | N[C@@H]1[C@H]2CN(c3nc4c(cc3F)c(=O)c(C(=O)O)cn4-c3ccc(F)cc3F)C[C@@H]12 [Trovafloxacin, trovafloxacin] | – | drug concentration-dependent decrease
